Measurements: patent US20240241099A1, “METHOD FOR IDENTIFYING PI3 KINASE-ALPHA INHIBITORS” (UNIVERSITÄT BASEL, priority 2021, published 2024)

Assays:
[1] = Metabolic stability in rat liver microsomes; assay type: in vitro ADME; settings: rat liver microsomes 0.5 mg protein/mL, 1 μM, 60 minutes
Method: (§1) The experiments were performed in triplicate; CNX-1351 was used as positive control (irreversible inhibitor) and PQR514 as negative control (reversible inhibitor). (b) Metabolic stability of 19, 22 and CNX-1351 using rat liver microsomes. The time-dependent loss of test items (1 μM) with liver microsomes (0.5 mg microsomal protein/mL) and the percentages of test item remaining after 60 minutes of incubation were measured, (n=2).
The metabolic stability of 19, 22 and CNX-1351 was evaluated in vitro in rat liver microsomes.

PI3Kα = PI3Kα (Homo sapiens, UniProt P42336); assay: TR-FRET tracer displacement / time-dependent inhibition (IC50 shift) assay; assay type: binding
Method: The B-methyl substituted enone (2) and its corresponding moderately electrophilic derivative, β,β-dimethyl enone (3) were selected to explore the target space. A collection of compounds with pairwise matched linkers but either fast (2, 10-12) or moderate (3, 13-15) reacting Michael acceptors were synthesized (FIG. 3A). A time-dependent inhibition (IC50 shift) assay with five pre-incubation times was designed to identify covalent, time-dependent inhibitors. For compounds bearing a fast-reacting warhead (2, 10-12) a significant IC50 shift was observed also for compounds having their Michael acceptor at >4 Å from the cysteine thiol (FIG. 3E). […] The increased efficiency in covalent bond formation for 12 is due to the irreversible binding rather than an improvement in reversible affinity (see Ki values in FIG. 3D). […]
The library was tested for cellular potency on inhibition of PKB phorphorilation, considered as an indicator of inhibition of PI3K signaling. Time-resolved fluorescence resonance (TR-FRET) tracer displacement assay was used to determine the rate constant for irreversible inactivation (kinact) and the second order rate constant typically used to characterize the covalent binding of irreversible inhibitors to the target protein (kinact/Ki). […]

[2] = system: PKB phosphorylation on Ser473 in SKOV3 cells; assay: In-cell Western assay of PKB Ser473 phosphorylation in SKOV3 cells; assay type: cell-based; settings: n = 3, read-out: pPKB S473 IC50
[3] = system: AktSer473 phosphorylation in SKOV3 ovarian cancer cells; assay: Cellular washout study in SKOV3 cells, P-AktSer473 by immunoblot; assay type: cell-based; settings: 2.5 μM for 2 hours, then washout
Method: as §1
The experiments were performed in triplicate; CNX-1351 was used as positive control (irreversible inhibitor) and PQR514 as negative control (reversible inhibitor).
(§2) The library of acrylamide-containing compounds was evaluated for PI3K signaling in SKOV3 ovarian cancer cells. […] Inhibition of AktSer473 phosphorylation measured by immunoblot analysis was used as an indicator of inhibition of PI3K signaling. Cells were incubated with the drugs (2.5 μM each) for 2 hours.
as §2, with “enone-containing” for “acrylamide-containing”

PI3Kα, sequence (P42336 whole entry): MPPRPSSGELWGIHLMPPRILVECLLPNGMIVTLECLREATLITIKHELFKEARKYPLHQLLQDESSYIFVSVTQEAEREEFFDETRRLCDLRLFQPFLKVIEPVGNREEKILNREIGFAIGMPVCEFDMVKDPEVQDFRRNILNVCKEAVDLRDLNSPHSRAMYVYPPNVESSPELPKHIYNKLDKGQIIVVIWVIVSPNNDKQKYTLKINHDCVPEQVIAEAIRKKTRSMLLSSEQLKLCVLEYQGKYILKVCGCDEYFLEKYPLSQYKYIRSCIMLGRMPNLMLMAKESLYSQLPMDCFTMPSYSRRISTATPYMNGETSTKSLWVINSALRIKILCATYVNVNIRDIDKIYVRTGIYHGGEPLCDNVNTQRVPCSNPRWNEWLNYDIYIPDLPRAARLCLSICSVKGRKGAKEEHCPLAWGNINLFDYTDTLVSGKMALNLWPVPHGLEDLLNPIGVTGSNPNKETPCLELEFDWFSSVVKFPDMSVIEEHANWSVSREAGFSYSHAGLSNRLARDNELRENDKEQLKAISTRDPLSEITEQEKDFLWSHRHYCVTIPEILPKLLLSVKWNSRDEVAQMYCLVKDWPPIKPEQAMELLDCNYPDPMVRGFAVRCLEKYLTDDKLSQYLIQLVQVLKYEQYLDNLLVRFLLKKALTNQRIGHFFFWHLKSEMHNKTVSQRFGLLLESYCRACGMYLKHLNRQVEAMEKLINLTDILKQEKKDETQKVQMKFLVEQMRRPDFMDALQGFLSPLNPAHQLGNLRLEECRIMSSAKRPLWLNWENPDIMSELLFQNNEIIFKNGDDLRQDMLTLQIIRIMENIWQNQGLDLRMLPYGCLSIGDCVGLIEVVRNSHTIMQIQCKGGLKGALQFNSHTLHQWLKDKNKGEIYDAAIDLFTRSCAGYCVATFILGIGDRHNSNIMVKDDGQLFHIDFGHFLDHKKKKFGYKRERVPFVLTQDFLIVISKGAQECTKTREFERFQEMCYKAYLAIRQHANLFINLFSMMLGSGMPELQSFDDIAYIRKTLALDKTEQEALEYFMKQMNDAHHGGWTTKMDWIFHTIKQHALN
PI3Kα, sequence (P27986 whole entry partner): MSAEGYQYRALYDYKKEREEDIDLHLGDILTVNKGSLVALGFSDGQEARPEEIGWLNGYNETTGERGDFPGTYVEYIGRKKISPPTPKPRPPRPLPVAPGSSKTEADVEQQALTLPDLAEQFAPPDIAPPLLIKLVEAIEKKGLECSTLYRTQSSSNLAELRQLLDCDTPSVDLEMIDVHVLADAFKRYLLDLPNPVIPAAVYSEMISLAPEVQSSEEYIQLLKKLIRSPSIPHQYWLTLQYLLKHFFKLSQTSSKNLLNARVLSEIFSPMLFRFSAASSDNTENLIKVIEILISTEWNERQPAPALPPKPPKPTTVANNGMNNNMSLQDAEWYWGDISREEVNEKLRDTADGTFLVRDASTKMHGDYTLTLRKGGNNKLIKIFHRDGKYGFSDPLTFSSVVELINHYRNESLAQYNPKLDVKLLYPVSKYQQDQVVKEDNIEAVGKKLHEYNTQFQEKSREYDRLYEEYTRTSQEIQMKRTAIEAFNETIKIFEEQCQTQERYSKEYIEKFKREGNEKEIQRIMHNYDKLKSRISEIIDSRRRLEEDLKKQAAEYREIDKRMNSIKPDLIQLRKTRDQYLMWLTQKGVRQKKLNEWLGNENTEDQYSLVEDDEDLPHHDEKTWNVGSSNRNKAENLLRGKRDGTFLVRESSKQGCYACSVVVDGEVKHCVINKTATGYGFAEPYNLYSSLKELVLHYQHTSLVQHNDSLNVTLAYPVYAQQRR

Compound | metabolic stability [1] | kinact/Ki, [nM^−1s^−1] (PI3Kα; TR-FRET efficiency of covalent bond formation) | kinact, [s^−1] (PI3Kα; TR-FRET rate constant for irreversible inactivation) | IC50 [2] | P-AktSer473 signaling after drug washout [3]
CC(C)=CC(=O)CCC(=O)N1CCN(Cc2cc3nc(-c4cccc5[nH]ncc45)nc(N4CCOCC4)c3s2)CC1 [CNX-1351] | rapidly metabolized | 1.73e-05 nM⁻¹ s⁻¹ | 0.000657 s⁻¹ | 290 nM | prolonged inhibition
Nc1ncc(-c2nc(N3CCOCC3)nc(N3CCOCC3)n2)c(C(F)F)n1 [PQR514] | – | – | – | – | immediately recovered
